Laboratory results published in US7175872B2, “Pyridinium-Betain compounds for use as taste modulators” (Nestec S.A., priority 2002, dated 2007).
“Also recorded” adds a separate entry of the source. Counter-ions that a name gives are not always drawn.

Key:
Type in all cases: in vivo
salty taste of NaCl = assay: Salt-intensity ranking of NaCl/Pyridinium-Betaine mixtures by sensory panel; details: 20 mmol/L each, pH 7.0; scale 0 (not salty) to 5 (very salty), reference NaCl-solution ranked as 1
Source text: The salt-intensities of various NaCl/Pyridinium-Betaine mixtures (20 mmol/L each) were compared to a 20 mmol/L NaCl standard solution. The sensory panel was asked to rank the salt-intensities of these solutions on a scale from 0 (not salty) to 5 (very salty), while the reference NaCl-solution was ranked as 1. As listed in Table 6, the most intense salty taste was found in the solution containing NaCl and Alapyridaine, as well as in the triple mixture with L-arginine. A slight impact was found for Argpyridaine and L-arginine.

sweet taste of sucrose = assay: Sweet taste detection threshold of sucrose/Pyridinium-Betaine mixtures (triangle test, sensory panel); set-up: key to Threshold decrease: fold decrease of sweet threshold vs pure sucrose; details: equimolar mixture with sucrose; for Threshold decrease: vs sucrose in water 12.5 mmol/L
Protocol: • Sensory panel training: […] Sensory analyses were performed in a sensory panel room at 22-25° C. on three different sessions. • Taste thresholds: The taste thresholds of the tastants or mixtures containing basic tastants plus Pyridinium-Betains were determined in a triangle test using Evian® mineral water as the solvent at a defined pH ([…] and H.-D. Belitz, Z. Lebensm. Unters. Forsch. 1975, 159, 65-72). The samples (3 mL) were presented in order of increasing concentrations (serial 1:1 dilutions). The threshold values evaluated in two different sessions were averaged. […] The taste intensities of aqueous (Evian®) solutions containing a basic tastant, such as glucose and MSG, for example, in constant concentrations and the compounds of the general formula (A), for example […], in various concentrations were compared with those of a solution containing the basic tastant only. To achieve this, triangle tests were performed with two glass vials containing the basic tastant in constant concentrations, and one glass vial containing a stepwise 1:1-diluted mixture of basic […]. […] The relative taste strength (taste enhancing factor) of a mixture containing the basic […] was related to the basic tastants glucose, MSG, or other tastants, respectively, as standard substances, and was determined as the ratio of the concentrations c of iso-intensely tasting solutions of the basic tastant, such as glucose (glc), and the mixture containing tastant plus Pyridinium-Betain, […])=[…] This taste enhancing effect is illustrated in examples. The sweet taste thresholds of equimolar mixtures of sweet tasting compounds and various Pyridinium-Betaines were determined by a triangle test using EVIAN® mineral water as the solvent. The sensorial evaluations were performed at different pH values. The equimolar mixture of […] and sucrose at pH 7.0 was evaluated with a 4-fold lower sweet threshold concentration than pure sucrose (Table 1).

sweet taste of glucose = assay: Iso-intensity: relative sweetness of glucose/Alapyridaine mixtures
Protocol: (§1) • Sensory panel training: […] Sensory analyses were performed in a sensory panel room at 22-25° C. on three different sessions. • Taste thresholds: The taste thresholds of the tastants or mixtures containing basic tastants plus Pyridinium-Betains were determined in a triangle test using Evian® mineral water as the solvent at a defined pH ([…] and H.-D. Belitz, Z. Lebensm. Unters. Forsch. 1975, 159, 65-72). The samples (3 mL) were presented in order of increasing concentrations (serial 1:1 dilutions). The threshold values evaluated in two different sessions were averaged. […] The taste intensities of aqueous (Evian®) solutions containing a basic tastant, such as glucose and MSG, for example, in constant concentrations and the compounds of the general formula (A), for example […], in various concentrations were compared with those of a solution containing the basic tastant only. […] The relative taste strength (taste enhancing factor) of a mixture containing the basic […] was related to the basic tastants glucose, MSG, or other tastants, respectively, as standard substances, and was determined as the ratio of the concentrations c of iso-intensely tasting solutions of the basic tastant, such as glucose (glc), and the mixture containing tastant plus Pyridinium-Betain, […])=[…] […]

umami taste of MSG = assay: Iso-intensity: relative umami taste of MSG/Alapyridaine mixtures; details: 1.5 mmol/kg MSG and 6.0 mmol/kg Alapyridaine vs 1.5 mmol/kg MSG
Protocol: as §1

For `CC(C(=O)[O-])[n+]1cc(O)ccc1CO` (stereo not shown) [Alapyridaine, N-(1-carboxyethyl)-3-hydroxy-6-hydroxymethyl-pyridinium inner salt], the Salt-intensity (salty taste of NaCl) was 0.0, the Sweet detection threshold (sweet taste of sucrose; pH 5.0) was 3.0 mmol/kg water and the Taste quality (sweet taste of sucrose; pH 5.0) was “sour taste; also recorded: sweet/”. For the same compound, the Threshold decrease (sweet taste of sucrose; pH 5.0) was 4.0, the Sweet detection threshold (sweet taste of sucrose; pH 7.0) was 3.0 mmol/kg water and the Taste quality (sweet taste of sucrose; pH 7.0) was “sweet”. The Threshold decrease (sweet taste of sucrose; pH 7.0) was 4, the Sweet detection threshold (sweet taste of sucrose; pH 9.0) was 1.5 mmol/kg water and the Taste quality (sweet taste of sucrose; pH 9.0) was “sweet”. For the same compound, the Threshold decrease (sweet taste of sucrose; pH 9.0) was 8, the “relative sweetness (iso-intensity)” value (sweet taste of glucose; 80 mmol/kg glucose and 125 mmol/kg Alapyridaine vs 80 mmol/kg glucose) was 8 -fold and the “maximum relative sweetness (iso-intensity)” value (sweet taste of glucose; 267 mmol/kg glucose and 125 mmol/kg Alapyridaine vs reference solution 267 mmol/kg glucose) was 5.3 -fold. For the same compound, the “maximum umami-taste intensity (iso-intensity)” value (umami taste of MSG) was 4 -fold.
